In this assay the target is T1, Aa ΔA/B EcR + RXRα + GRIP1 (Aedes aegypti, UniProt P49880).
T1 construct: ubiquitin (human, 76 aa) (N, cleaved yes); expressed in transfected cells
Nature of the assay: Yeast 6x EcRE-lacZ β-galactosidase transactivation assay. It counts as cell-based, Aedes aegypti; human. As to conditions: RH 5992 10 μM, 4 hours, DMSO control 0.544. On the procedure:
The human RXR α (Genbank accession number X52773), mouse RXR β (Genbank accession number X66224) or mouse RXR γ (Genebank accession number X66225) subtypes were expressed in yeast-E. coli multicopy 2μ expression plasmids under regulation of CUP1 promoter with the LEU2 selective marker (1).
Briefly, yeast cells are cultured in 5 mL of YPD liquid medium overnight at 30° C. The cell culture was diluted 1:20 in YPD media and further grown until cell density reached an O.D of 0.6. at OD600. The cells were pelleted by centrifugation and washed with 10 mL of TE+0.1M lithium acetate. Cells are then resuspended in 10 mL TE+0.1M lithium acetate and incubated at 30° C. for 1 hour. Cells are collected and resuspended in 0.5 mL of TE+ 0.1M lithium acetate. […]
Using the transformation method described above, yeast were co-transformed with a reporter gene as shown in FIG. 2 and the expression vector encoding the full-length Aedes aegypti ecdysone receptor, Aa EcR (FIG. 7A) in the presence or absence of the Aa EcR heterodimer partner, Aa USP (a or b form, FIGS. 8A and 8B respectively). […] As the N-terminal portion of the AaEcR receptor is reported to play a role in ligand independent transactivation, an expression vector containing an N-terminal deletion in the Aa EcR was constructed (see FIG. 7B) and assessed in the β-galactosidase assays described above. […]

SMILES strings stand for the structures.

T1 sequence (P49880 with tags, fused parts or gaps): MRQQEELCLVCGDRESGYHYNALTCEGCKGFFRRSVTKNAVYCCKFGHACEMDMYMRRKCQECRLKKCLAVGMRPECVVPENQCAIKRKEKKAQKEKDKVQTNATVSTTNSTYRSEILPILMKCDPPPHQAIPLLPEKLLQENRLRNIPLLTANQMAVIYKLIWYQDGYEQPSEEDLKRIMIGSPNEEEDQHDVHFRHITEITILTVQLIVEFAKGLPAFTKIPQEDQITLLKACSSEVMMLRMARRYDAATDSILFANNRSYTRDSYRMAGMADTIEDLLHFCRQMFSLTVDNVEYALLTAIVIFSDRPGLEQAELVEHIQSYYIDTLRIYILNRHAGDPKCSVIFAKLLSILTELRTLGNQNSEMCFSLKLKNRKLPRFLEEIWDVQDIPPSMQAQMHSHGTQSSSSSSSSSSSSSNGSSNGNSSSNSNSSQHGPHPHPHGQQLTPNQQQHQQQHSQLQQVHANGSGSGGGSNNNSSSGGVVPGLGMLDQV
T1 sequence (P19793 whole entry partner): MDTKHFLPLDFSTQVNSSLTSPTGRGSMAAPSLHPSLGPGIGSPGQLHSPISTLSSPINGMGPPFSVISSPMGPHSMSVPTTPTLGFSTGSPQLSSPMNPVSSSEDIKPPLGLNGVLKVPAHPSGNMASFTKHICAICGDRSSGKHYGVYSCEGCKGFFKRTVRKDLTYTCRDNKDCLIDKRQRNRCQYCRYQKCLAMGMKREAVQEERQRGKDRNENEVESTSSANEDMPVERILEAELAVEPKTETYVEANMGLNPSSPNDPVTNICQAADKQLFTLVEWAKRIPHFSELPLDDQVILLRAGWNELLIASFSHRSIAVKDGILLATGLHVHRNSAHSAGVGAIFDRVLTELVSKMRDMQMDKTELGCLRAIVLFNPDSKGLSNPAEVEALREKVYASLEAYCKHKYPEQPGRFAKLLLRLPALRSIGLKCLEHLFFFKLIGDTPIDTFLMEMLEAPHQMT

For `CCc1ccc(C(=O)NN(C(=O)c2cc(C)cc(C)c2)C(C)(C)C)cc1` [RH 5992, tebufenozide], the β-galactosidase activity turned out to be 2.032.
